# Measured values taken from US20260042769A1, “TRIARYL AGONISTS OF ALPHA-2 ADRENERGIC RECEPTORS” (ALCEPTOR THERAPEUTICS, INC., priority 2023, published 2026).
# pEC50: −log10 of the molar value.
# Target: T1, human ADRA2B receptor (Homo sapiens, UniProt P18089)
# T1 construct: expressed in transfected cells
# T1 sequence (P18089 1-450): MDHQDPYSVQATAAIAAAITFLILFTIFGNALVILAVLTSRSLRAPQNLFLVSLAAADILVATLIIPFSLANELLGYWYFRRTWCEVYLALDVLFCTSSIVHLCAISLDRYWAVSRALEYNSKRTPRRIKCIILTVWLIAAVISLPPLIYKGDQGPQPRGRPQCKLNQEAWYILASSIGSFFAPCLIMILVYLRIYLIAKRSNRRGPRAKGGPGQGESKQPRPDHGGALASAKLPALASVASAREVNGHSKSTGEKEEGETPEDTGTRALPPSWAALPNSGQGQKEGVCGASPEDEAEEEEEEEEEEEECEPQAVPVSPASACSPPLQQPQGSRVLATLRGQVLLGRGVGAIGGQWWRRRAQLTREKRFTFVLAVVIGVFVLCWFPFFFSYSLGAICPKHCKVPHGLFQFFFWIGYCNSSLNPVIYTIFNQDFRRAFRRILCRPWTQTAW
# Test: GTPγS agonist assay, ADRA2B receptor
# Format: biochemical
# Settings: read-out: GTPase - Human Alpha2B EC50
# Experimental: GTP ? S Agonist Assays (ADRA2A, ADRA2B, and ADRA2C Receptors)
# Membranes were prepared for GTP ? S binding assays from CHO-K1 cells stably expressing human ADRA2A, ADRA2B, or ADRA2C receptor. Briefly, cells were grown in 5-layer cell culture flasks. Cells were washed with 50 mL of PBS and then dissociated with 0.05% trypsin. Dissociated cells were then collected by centrifugation at 650×g for 8 min at 4° C. Pellets were washed again in PBS by centrifugation and resuspended in 30 mL of 20 mM HEPES, 10 mM EDTA, pH 7.4. After sitting on ice for 30 min, membranes were collected by centrifugation at 50000×g for 15 min at 4° C., resuspended in 30 mL of 20 mM HEPES, 0.1 mM EDTA, pH 7.4 and collected again by centrifugation. Pellets were then washed twice by centrifugation in 30 mL of 20 mM HEPES, pH 7.4, and stored at −80° C. until the day of the assay. On the day of the assay, pellets were thawed on ice and resuspended in 1 mL of 20 mM HEPES, pH 7.4, 10 mM MgCl2, 100 mM NaCl using dounce homogenization. Membrane protein concentration was determined by BCA protein assay (Promega, Madison, WI) according to Promega guidelines.
# On the day of the assay, serial dilutions of test compounds were brought up in assay buffer (20 mM HEPES, 10 mM MgCl2, 200 mM NaCl) at 10× final assay concentration. 50 μL/well of membrane homogenates (containing 5 μg of membrane protein for ADRA2A, ADRA2B, or 7.5 μg for ADRA2C) were prepared in assay buffer supplemented with GDP at 2× final assay concentration (5 μM GDP) and dispensed into 96 well polypropylene, U-bottom Greiner plates. Then, 10 μL of compounds were added to assay plates and incubated for 10 min at room temperature. […] The binding reaction was incubated for 1 h at 37° C. Membranes in assay reactions were then transferred to GF/C filter plates (UniFilter, Perkin Elmer) and washed three times using a FilterMate Harvester (Perkin Elmer) with cold assay buffer containing no GDP. Filter plates were then dried at 40° C. overnight followed by the addition of 30 μL/well of Beta Plate Scintillation liquid. Plates were top and bottom sealed before being read on TopCount scintillation counter (Perkin Elmer, Waltham, MA).
row,SMILES,pEC50
1,"Cc1cccc(C(Cc2cnccn2)c2cnc[nH]2)c1C (stereo not shown) [Compound 94, 2-[2-(2,3-dimethylphenyl)-2-(1H-imidazol-4-yl)ethyl] pyrazine]",6.30 to 7.30
2,"Cc1cccc(CC(c2cnc[nH]2)c2cccc(C)c2C)n1 (stereo not shown) [Compound 96, 2-[2-(2,3-dimethylphenyl)-2-(1H-imidazol-4-yl)ethyl]-6-methyl-pyridine]",7.30 to 8.00
3,"Cc1cccc(C(Cc2ccncn2)c2cnc[nH]2)c1C (stereo not shown) [Compound 92, 4-[2-(2,3-dimethylphenyl)-2-(1H-imidazol-4-yl)ethyl] pyrimidine]",7.30 to 8.00
4,"Cc1cccc(C(Cc2ccccn2)c2cnc[nH]2)c1C (stereo not shown) [Compound 50, 2-[2-(2,3-dimethylphenyl)-2-(1H-imidazol-5-yl)ethyl] pyridine]",< 6.30
5,"Clc1ccc(C(Cc2cccnn2)c2c[nH]cn2)cc1 (stereo not shown) [Compound 217, 3-[2-(p-chlorophenyl)-2-(4-imidazolyl)ethyl] pyridazine]",< 6.30
6,"Cc1nccc(C[C@@H](c2cnc[nH]2)c2cccc(C)c2C)n1 [Compound 71, 4-[(2R)-2-(2,3-dimethylphenyl)-2-(1H-imidazol-4-yl)ethyl]-2-methyl-pyrimidine]",< 6.30
7,"Cc1cccc(C(Cc2ccc(=O)[nH]n2)c2c[nH]cn2)c1C (stereo not shown) [Compound 86, 6-[2-(2,3-dimethylphenyl)-2-(1H-imidazol-4-yl)ethyl]-2,3-dihydropyridazin-3-one]",> 8.00
8,"COc1cccc(C[C@H](c2cnc[nH]2)c2cccc3c2COC3)n1 [Compound 11, 2-[(2S)-2-(1,3-dihydro-2-benzofuran-4-yl)-2-(1H-imidazol-4-yl)ethyl]-6-methoxypyridine]",> 8.00
9,"FC1(F)Oc2cccc(C(Cc3ccccn3)c3c[nH]cn3)c2O1 (stereo not shown) [Compound 115, 2,2-difluoro-4-[1-(4-imidazolyl)-2-(2-pyridyl)ethyl]-2H-1,3-benzodioxole]",6.30 to 7.30
10,"c1cc2c(c([C@H](Cc3cnn(C4CC4)c3)c3c[nH]cn3)c1)OCC2 [Compound 290, 4-[(S)-2-(2,3-dihydro-1-benzofuran-7-yl)-2-(4-imidazolyl)ethyl]-1-]",> 8.00
11,"Cc1cc(C[C@H](c2cnc[nH]2)c2cccc(C)c2C)n(C)n1 [Compound 68, 5-[(2S)-2-(2,3-dimethylphenyl)-2-(1H-imidazol-4-yl)ethyl]-1,3-dimethyl-1H-pyrazole]",< 6.30
12,"Cc1cccc([C@H](Cc2cccnc2)c2cnc[nH]2)c1C [Compound 58, 3-[(2S)-2-(2,3-dimethylphenyl)-2-(1H-imidazol-4-yl)ethyl] pyridine]",6.30 to 7.30
13,"C#Cc1cccc(C(Cc2cccnn2)c2c[nH]cn2)c1 (stereo not shown) [Compound 229, 3-[2-(m-ethynylphenyl)-2-(4-imidazolyl)ethyl] pyridazine]",< 6.30
14,"Cc1cccc([C@@H](Cc2cccnn2)c2cnc[nH]2)c1C [Compound 56, 3-[(2R)-2-(2,3-dimethylphenyl)-2-(1H-imidazol-4-yl)ethyl] pyridazine]",< 6.30
15,"Cc1nc(C)c(C[C@H](c2c[nH]cn2)c2cccc(C)c2C)s1 [Compound 124, 5-[(S)-2-(4-imidazolyl)-2-(2,3-xylyl)ethyl]-2,4-dimethyl-1,3-thiazole]",7.30 to 8.00
16,"Cc1cccc(C(Cc2ccnnc2)c2cnc[nH]2)c1C (stereo not shown) [Compound 104, 4-[2-(4-imidazolyl)-2-(2,3-xylyl)ethyl] pyridazine]",< 6.30
17,"Cc1cnc(C[C@@H](c2cnc[nH]2)c2cccc(C)c2C)nc1 [Compound 75, 2-[(2R)-2-(2,3-dimethylphenyl)-2-(1H-imidazol-4-yl)ethyl]-5-methylpyrimidine]",6.30 to 7.30
18,"Cc1cccc([C@@H](Cc2ccn(C)n2)c2c[nH]cn2)c1C [Compound 105, 3-[(R)-2-(4-imidazolyl)-2-(2,3-xylyl)ethyl]-1-methylpyrazole]",< 6.30
19,"FC(F)(F)c1ccc(C(Cc2cccnn2)c2c[nH]cn2)cc1 (stereo not shown) [Compound 223, 3-{2-(4-imidazolyl)-2-[p-(trifluoromethyl)phenyl]ethyl}pyridazine]",< 6.30

# The next lines start with the values.
row,pEC50,SMILES
1,6.30 to 7.30,"COc1nccc(CC(c2c[nH]cn2)c2cccc3ncoc23)n1 (stereo not shown) [Compound 174, 7-[1-(4-imidazolyl)-2-(2-methoxy-4-pyrimidinyl)ethyl]-1,3-benzoxazole]"
2,6.30 to 7.30,"COc1nccc(CC(c2c[nH]cn2)c2cccc(C#N)c2C)n1 (stereo not shown) [Compound 171, 6-[1-(4-imidazolyl)-2-(2-methoxy-4-pyrimidinyl)ethyl]-2-toluonitrile]"
3,> 8.00,"Cc1cccc([C@H](Cc2cccnc2)c2cnc[nH]2)c1Cl [Compound 60, 3-[(2S)-2-(2-chloro-3-methylphenyl)-2-(1H-imidazol-4-yl)ethyl] pyridine]"
4,6.30 to 7.30,"COc1nccc(CC(c2c[nH]cn2)c2cccc(C#N)c2F)n1 (stereo not shown) [Compound 177, 2-fluoro-3-[1-(4-imidazolyl)-2-(2-methoxy-4-pyrimidinyl)ethyl] benzonitrile]"
5,< 6.30,"c1ccc(C[C@@H](c2cnc[nH]2)c2cccc3c2COC3)nc1 [Compound 46, 2-[(2R)-2-(1,3-dihydro-2-benzofuran-4-yl)-2-(1H-imidazol-4-yl)ethyl] pyridine]"
6,< 6.30,"Fc1ccc(C(Cc2cccnn2)c2c[nH]cn2)cc1F (stereo not shown) [Compound 224, 3-[2-(3,4-difluorophenyl)-2-(4-imidazolyl)ethyl] pyridazine]"
7,< 6.30,"COc1c(Cl)cccc1C(Cc1cccnn1)c1c[nH]cn1 (stereo not shown) [Compound 160, 3-[2-(3-chloro-2-methoxyphenyl)-2-(4-imidazolyl)ethyl] pyridazine]"
8,6.30 to 7.30,"COc1cccc(C[C@@H](c2c[nH]cn2)c2cccc(C)c2C)n1 [Compound 4, 2-[(2R)-2-(2,3-dimethylphenyl)-2-(1H-imidazol-4-yl)ethyl]-6-methoxypyridine]"
9,> 8.00,"Cc1nc(C)c(C[C@@H](c2c[nH]cn2)c2cccc(C)c2C)s1 [Compound 123, 5-[(R)-2-(4-imidazolyl)-2-(2,3-xylyl)ethyl]-2,4-dimethyl-1,3-thiazole]"
10,< 6.30,"FC1(F)Oc2cccc([C@H](Cc3ccccn3)c3c[nH]cn3)c2O1 [Compound 122, 4-[(S)-1-(4-imidazolyl)-2-(2-pyridyl)ethyl]-2,2-difluoro-2H-1,3-benzodioxole]"
11,7.30 to 8.00,"Cc1cccc([C@@H](Cc2ccccn2)c2cnc[nH]2)c1F [Compound 40, 2-[(2R)-2-(2-fluoro-3-methylphenyl)-2-(1H-imidazol-4-yl)ethyl] pyridine]"
12,< 6.30,"c1cnnc(C[C@@H](c2c[nH]cn2)c2cccc3c2CCO3)c1 [Compound 324, 3-[(R)-2-(2,3-dihydro-1-benzofuran-4-yl)-2-(4-imidazolyl)ethyl]pyridazine]"
13,> 8.00,"COc1cc(OC)nc(CC(c2c[nH]cn2)c2cccc(C)c2C)n1 (stereo not shown) [Compound 91, 2-[2-(2,3-dimethylphenyl)-2-(1H-imidazol-4-yl)ethyl]-4,6-dimethoxy-pyrimidine]"
14,< 6.30,"COc1cccc(C[C@H](c2c[nH]cn2)c2cccc(Cl)c2Cl)n1 [Compound 99, 4-[(S)-1-(2,3-dichlorophenyl)-2-(6-methoxy-2-pyridyl)ethyl] imidazole]"
15,< 6.30,"Cc1c(Cl)cccc1[C@H](Cc1cccnc1)c1cnc[nH]1 [Compound 62, 3-[(2S)-2-(3-chloro-2-methylphenyl)-2-(1H-imidazol-4-yl)ethyl]pyridine]"
